# Laboratory results reported in publication PMC6523531, “Mechanistic Studies on the Absorption-Enhancing Effects of Gemini Surfactant on the Intestinal Absorption of Poorly Absorbed Hydrophilic Drugs in Rats” (Pharmaceutics, 2019).
# Columns and labels:
# Caco-2 cell monolayers [1] = experiment: Transepithelial electrical resistance (TEER) of Caco-2 cell monolayers; type: cell-based, Human
# Experimental: (§1) Caco-2 cells (passage 45) were cultured in 175-cm^2 culture flask (Thermo Fisher Scientific™, Waltham, MA, USA). The culture medium consisted of DMEM containing 10% FBS, 0.1 mM MEM–NEAA, 2 mM glutamine, 100 U/mL penicillin, and 100 µg/mL streptomycin [30]. Cells were cultured in a humidified atmosphere of 5% CO2 at 37 °C. The culture medium was changed every two days. When the cultured Caco-2 cells became sub-confluent, they were seeded onto 12-mm Transwell® with 0.4-µm pore polycarbonate membrane inserts (Corning Inc., New York, NY, USA) at a density of 1 × 10^5 cells/insert. The transepithelial transport studies were performed when the transepithelial electrical resistance (TEER) values were more than 500 Ω·cm^2 (i.e., after 21 days). Briefly, after removing the incubation medium by aspiration, the apical and basal sides were washed thrice by Hank’s Balanced Salt (HBSS) solution (pH 7.4). The cells were incubated in HBSS (pH 6.0) for the apical side and HBSS (pH 7.4) for the basal side for 20 min at 37 °C. HBSS supplemented with 1 mg/mL glucose was used in all cell culture experiments. After removing the washing solution by aspiration, 500 µL of 10 µM CF in a HBSS (pH 6.0) solution with or without various concentrations (0.001% v/v, 0.01% v/v, 0.025% v/v, 0.05% v/v, and 0.1% v/v) of SLG-30, 0.1% (w/v) and 1% (w/v) NaGC or 0.05% (w/v) sodium laurate were added to the apical side at zero time, whereas precisely 1500 µL of HBSS (pH 7.4) was added to the basal side at 37 °C. The cells were kept at 37 °C and 5% CO2 and were continuously agitated on a shaker during the transport experiments.
# (§2) The TEER values were measured by Millicell® (ERS-2 Volt-Ohm Meter, Billerica, MA, USA) at the predetermined times up to 24 h, and the initial values were considered as 100%. The samples from the basal side were withdrawn at predetermined time points up to 24 h. The samples were replaced with an equal volume of HBSS (pH 7.4). CF was determined as previously mentioned. The apparent permeability coefficients Papp (cm/s) for the transported CF was determined by the following equation: Papp=dXR/dt×1/A×1/C0 where Papp is the apparent permeability coefficient in centimeters per second, XR is the amount of CF in moles in the receptor side, dXR/dt is the flux across the monolayer, A is the diffusion area (i.e., in square centimeters), and C0 is the initial concentration of CF in the donor side in moles per milliliter.
# Caco-2 cells = experiment: Caco-2 cell damage by LDH release; type: cell-based, Human; details: after the transport studies, n = 6
# Experimental: After the transport studies were over, the solution on the apical side of each well was collected. Cell injury caused by SLG-30 was determined by tracking the LDH release. The cell precipitate and the monolayers left on the filters were solubilized with 1% (v/v) Triton X-100. The solutions from apical sides and the lysates were centrifuged for 7 min at 200× g at a temperature of 4 °C. The activities of LDH in the supernatant were measured. (LDHrelease) stands for the activity of the LDH released into the apical side in the existence of SLG-30. (LDHcell) stands for the activity of the LDH obtained from the cell lysate. LDHreleased% was calculated by the following equation:LDHrelease% = LDHrelease × 100/(LDHrelease + LDHcells)
# rat small intestines = experiment: In situ closed-loop enteric absorption of CF with absorption enhancers; type: in vivo; details: for Enhancement Ratio (AUC with enhancer/AUC control without enhancer): CF 0.5 mg/kg, rat small intestine
# Experimental: The enteric absorption of CF was examined by an in situ closed-loop method, as reported previously. The experiments were carried out in accordance with the guidelines of the Animal Ethics Committee at Kyoto Pharmaceutical University. The protocols were approved by this Committee (permit number: 16-12-069, permit date: 14 April 2016). The rats were starved overnight for approx. 16 h pre-dosing, but water was freely available. After inducing anesthesia with sodium pentobarbital which was administered intraperitoneally at a dose of 32 mg/kg body weight, the rats were placed under a heat lamp to maintain a body temperature at around 37 °C, and the intestines were exposed using a midline-abdominal incision. After the bile duct was ligated, the intestines were washed with phosphate buffered saline (PBS, pH 7.4), and the remaining buffer solution was expelled with air. Enteric cannulation was performed at both ends using polyethylene tubing, and the distal parts of the small intestines were clipped by forceps. The dosing solutions (3 mL) with or without absorption enhancers kept at 37 °C, were directly introduced into the lumen of the enteric loop through a cannulated opening in the proximal part of the small enteric loop, which was then closed by clipping with another forceps. The jugular vein was exposed, and approx. 0.3 mL of blood was collected via a direct puncture into heparinized syringes at predetermined time intervals up to 240 min. The samples were immediately centrifuged at 12,000 rpm (15,000× g) for a period of 5 min to obtain the plasma fraction, which was stored on ice for further analysis. CF fluorescence signals in these plasma samples were detected after the treatment with the same volume of acetonitrile using a fluorescence spectrophotometer, Powerscan1 HT supplied by BioTek Instruments (Winooski, VT, USA) at an excitation wavelength of 485 nm and an emission wavelength of 535 nm. There was no significant background fluorescence in the plasma when the fluorescence intensities of CF were determined in this study. The peak drug concentrations (Cmax) and the time to reach the peak drug concentrations (Tmax) in the plasma were directly determined from the plasma concentration–time profiles. The area under the curve (AUC) was calculated by the trapezoidal method from pre-dose (time zero) till the administration of the final sample. The absorption enhancement ratios of CF, with or without absorption enhancers, were calculated as follows: Absorption enhancement ratio = AUCwith enhancer/AUCcontrol without enhancer
# Caco-2 cell monolayers [2] = experiment: Transport of CF across Caco-2 cell monolayers; type: in vitro ADME, Human; details: 10 µM CF
# Experimental: as §1, with “After removing the washing solution by aspiration, 500 µL of 10 µM CF in a HBSS (pH 6.0) solution with or without various concentrations (0.001% v/v, 0.01% v/v, 0.025% v/v, 0.05% v/v, and 0.1% v/v) of SLG-30, 0.1% (w/v) and 1% (w/v) NaGC or 0.05% (w/v) sodium laurate were added to the apical side at zero time, whereas precisely 1500 µL of HBSS (pH 7.4) was added to the basal side at 37 °C. The cells were kept at 37 °C and 5% CO2 and were continuously agitated on a shaker during the transport experiments.” left out
# as §2, with “The samples from the basal side were withdrawn at predetermined time points up to 24 h. The samples were replaced with an equal volume of HBSS (pH 7.4).” left out
# [3] = tested on: brush-border membrane vesicles (BBMVs); experiment: Membrane fluidity of BBMVs by fluorescence polarization (fluorescence anisotropy); details: rat BBMVs, 37 °C, SLG-30 0.1-1.0% v/v, vs control, n = 4
# Experimental: To prepare BBMVs, we followed the methods as reported previously with a slight modification. Briefly, an in situ small intestinal loop was prepared in each rat, as mentioned above, and then, PBS (pH 7.4) was administered into the loop. The fat was trimmed off from the small intestine and mesentery. Then, the whole small intestine was soaked in ice-cold PBS (pH 7.4). The small intestine was divided into 10 cm segments. Mucosa was scraped out with a slide glass from each of these segments and used for subsequent studies. BBMVs were prepared by the divalent cation precipitation method using MgCl2 in the presence of ethylenebis (oxyethylenenitrilo) tetraacetic acid (EGTA). Briefly, the collected mucosa was homogenized in a buffer containing mannitol (300 mM), EGTA (5 mM), and Tris (pH 7.4) (12 mM) by using a tissue homogenizer. An aqueous solution of 10 mM magnesium chloride was added to the homogenate. The homogenate was centrifuged at 3000× g for 15 min. The supernatant was then centrifuged at 32,000× g for 30 min. The pellet was resuspended in a buffer containing mannitol (300 mM), EGTA (5 mM), and Tris (pH 7.4) (12 mM) by using a 26-G needle. The protein concentration was determined by the BCA method using bovine serum albumin as a standard, and the final concentration was adjusted to 1 mg/ml in each Eppendorf tube. The samples were frozen by liquid nitrogen and kept at −80 °C for further studies.
# The BBMVs (100 μg protein) were incubated with 1 μM DPH, with 0.5 μM tma-DPH or with 5 μM DNS-Cl in HEPES-Tris buffer (25 mM HEPES, 5.4 mM KCl, 1.8 mM CaCl2, 0.8 mM MgSO4, 140 mM NaCl, 5 mM glucose, pH 7.4 adjusted by 1 M Tris) in the dark at 37 °C for 30 min [25, 28]. Then, various concentrations (0.1% v/v, 0.25% v/v, 0.5% v/v, and 1.0% v/v) of SLG-30 were added. Then, the samples were incubated in the dark for 1 min at 37 °C. For the control group, the same procedure was carried out by adding the HEPES-Tris buffer only. The fluorescence intensities and the steady-state polarization of fluorescence expressed as the fluorescence anisotropy, r, of the labeled membrane vesicles were measured at 37 °C. The excitation and emission wavelengths were λex = 360 nm, and λem = 430 nm for DPH and tma-DPH and λex = 380 nm and λem = 480 nm for DNS-Cl. The measurements were carried out by using a Hitachi Spectrofluorometer (F-2000 Spectrofluorometer, Hitachi Seisakusho Corp, Yokohama, Japan) equipped with a polarizer set.
# The fluorescence anisotropy (r) was calculated using the following equation: r=IV−IH/IV+2IH where IV and IH respectively represent the […] fluorescence intensities to the polarized excitation plane.
# [4] = in situ closed loop, 0.5% (v/v) SLG-30, 0.5% (w/v) sodium laurate, 1% (w/v) sodium glycocholate
structure (smiles),measurement,setting,value
"C[C@H](CCC(=O)NCC(=O)[O-])[C@H]1CC[C@H]2[C@@H]3[C@H](O)C[C@@H]4C[C@H](O)CC[C@]4(C)[C@H]3C[C@H](O)[C@]12C.[Na+] [Sodium glycocholate, sodium glycocholate]",TEER values,Caco-2 cell monolayers [1]; 0.1% (w/v) NaGC,Almost no effect
same,TEER values,Caco-2 cell monolayers [1]; 1% (w/v) NaGC,significantly decreased then recovered to the baseline
same,release of LDH from Caco-2 cells vs control,Caco-2 cells; 0.1% (w/v) and 1% (w/v) NaGC,Neither 0.1% (w/v) nor 1% (w/v) of NaGC increased the release of LDH
same,Enhancement Ratio (AUC with enhancer/AUC control without enhancer),rat small intestines; [4],4.5
same,AUC0→240 of CF higher than that of the control group,"rat small intestines; rat in situ closed loop, 0.5% (v/v) SLG-30 or 1% (w/v) NaGC",4.5 times
same,effect on the transport of CF,Caco-2 cell monolayers [2]; 0.1% (w/v) NaGC,insignificant effect
same,increase of the transport of CF vs control,Caco-2 cell monolayers [2]; 1% (w/v) NaGC,5 times
CC(C)CCC[C@@H](C)[C@H]1CC[C@H]2[C@@H]3CC=C4C[C@@H](O)CC[C@]4(C)[C@H]3CC[C@]12C [cholesterol],fluorescence anisotropy of tma-DPH (outer lipid bilayers),[3]; 0.5 μM tma-DPH,increased the fluorescence anisotropy
same,fluorescence anisotropy of DPH (inner lipid bilayers),[3]; 1 μM DPH,increased the fluorescence anisotropy
same,fluorescence anisotropy of DNS-Cl (protein portion),"[3]; 5 μM DNS-Cl, p < 0.01",increased the fluorescence anisotropy
"CCCCCCCCCCCC(=O)[O-].[Na+] [Sodium laurate, sodium laurate]",TEER values,"Caco-2 cell monolayers [1]; 0.05% (w/v) sodium laurate, without recovering to the baseline",significantly reduced
same,activity of LDH released from Caco-2 cells vs control,Caco-2 cells; 0.05% (w/v) sodium laurate,significantly increased
same,Enhancement Ratio (AUC with enhancer/AUC control without enhancer),rat small intestines; [4],2.7
same,Tmax of CF,"rat small intestines; plasma CF (0.5 mg/kg) given with enhancer into rat small intestine, in situ closed loop, 0.5% (v/v) SLG-30, 0.5% (w/v) sodium laurate, 1% (w/v) sodium glycocholate, mean ± S.E., n = 3",approximately 15 min
same,increase of the transport of CF vs control,Caco-2 cell monolayers [2]; 0.05% (w/v) sodium laurate,94 times
